Columns and labels:
[1] = target: GPR84 (Homo sapiens, UniProt Q9NQS5); assay: DiscoverX cell-based reporter assay, agonist mode
[2] = target: T1, F. prausnitzii FAAH (CGOBPECO_01956) (Faecalibacterium prausnitzii, UniProt A0A564UB45); assay: LC-MS hydrolysis rate assay; format: biochemical; details: 100 uM OEA
T1 sequence (A0A564UB45 31-399): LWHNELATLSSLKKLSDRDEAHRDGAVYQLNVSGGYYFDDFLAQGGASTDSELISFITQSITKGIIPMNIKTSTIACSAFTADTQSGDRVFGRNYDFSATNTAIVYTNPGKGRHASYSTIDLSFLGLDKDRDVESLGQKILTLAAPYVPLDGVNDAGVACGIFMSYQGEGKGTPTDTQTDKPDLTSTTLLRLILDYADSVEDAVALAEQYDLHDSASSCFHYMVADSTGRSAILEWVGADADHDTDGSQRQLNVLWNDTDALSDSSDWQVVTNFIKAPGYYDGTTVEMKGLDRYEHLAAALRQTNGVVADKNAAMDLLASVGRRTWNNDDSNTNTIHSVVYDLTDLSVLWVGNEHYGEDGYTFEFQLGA

[3] = target: T2, PPARα (Homo sapiens, UniProt Q07869); assay: DiscoverX cell-based reporter assay, agonist mode
T2 sequence (Q07869 1-468): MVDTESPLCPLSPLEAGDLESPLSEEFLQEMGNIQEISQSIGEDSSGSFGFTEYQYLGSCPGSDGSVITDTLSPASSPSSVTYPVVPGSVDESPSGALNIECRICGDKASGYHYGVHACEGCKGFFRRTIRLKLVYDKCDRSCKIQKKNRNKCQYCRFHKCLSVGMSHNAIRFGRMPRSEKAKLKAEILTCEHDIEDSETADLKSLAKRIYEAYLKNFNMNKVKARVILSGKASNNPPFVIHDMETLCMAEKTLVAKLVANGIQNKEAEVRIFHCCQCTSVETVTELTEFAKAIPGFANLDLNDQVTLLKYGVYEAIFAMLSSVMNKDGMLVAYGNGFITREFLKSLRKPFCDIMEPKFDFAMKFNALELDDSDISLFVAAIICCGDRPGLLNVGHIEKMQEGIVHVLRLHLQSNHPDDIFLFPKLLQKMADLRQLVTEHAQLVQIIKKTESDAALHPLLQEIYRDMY

[4] = target: T3, PPARδ (Homo sapiens, UniProt Q03181); assay: DiscoverX cell-based reporter assay, agonist mode
T3 sequence (Q03181 1-441): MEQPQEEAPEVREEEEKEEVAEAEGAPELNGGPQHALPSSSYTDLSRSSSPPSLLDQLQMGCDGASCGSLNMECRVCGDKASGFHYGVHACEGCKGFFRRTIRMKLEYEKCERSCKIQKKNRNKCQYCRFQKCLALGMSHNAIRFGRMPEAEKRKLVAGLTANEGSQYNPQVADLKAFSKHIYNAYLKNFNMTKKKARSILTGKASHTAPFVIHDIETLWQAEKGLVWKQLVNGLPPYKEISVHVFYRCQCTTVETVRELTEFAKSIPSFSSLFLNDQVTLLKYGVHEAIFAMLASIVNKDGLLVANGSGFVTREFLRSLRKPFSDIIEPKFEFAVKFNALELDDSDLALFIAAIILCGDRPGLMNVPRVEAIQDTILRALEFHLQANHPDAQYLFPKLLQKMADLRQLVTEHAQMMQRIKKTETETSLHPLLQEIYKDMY

Chain of GPR84 (Q9NQS5 whole entry): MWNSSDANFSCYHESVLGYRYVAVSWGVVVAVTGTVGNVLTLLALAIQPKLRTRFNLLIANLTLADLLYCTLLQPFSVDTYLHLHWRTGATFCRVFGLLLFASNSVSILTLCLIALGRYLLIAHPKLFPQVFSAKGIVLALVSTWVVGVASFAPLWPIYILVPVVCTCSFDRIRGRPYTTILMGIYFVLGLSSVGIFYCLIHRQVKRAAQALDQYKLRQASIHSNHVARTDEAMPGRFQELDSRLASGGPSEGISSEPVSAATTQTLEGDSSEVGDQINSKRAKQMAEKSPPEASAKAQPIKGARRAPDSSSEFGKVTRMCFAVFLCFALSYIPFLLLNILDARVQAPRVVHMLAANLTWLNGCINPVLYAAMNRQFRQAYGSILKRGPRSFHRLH

CCCCCCCC/C=C\CCCCCCCC(=O)NCCO [OEA]
% activation at 10 μM [1]: GPR84, which was strongly activated by OEA
LC-MS hydrolysis rate assay [2]: hydrolytic activity of FAAH against PEA, OEA, C18:1-Arg, and C18:1-Lys (Fig. 2D)
% activation at 10 μM [3]: OEA was a strong agonist of PPARδ and to a lesser extent PPARα
% activation at 10 μM [4]: OEA was a strong agonist of PPARδ and to a lesser extent PPARα

From article PMC11572954 (Science (New York, N.Y.), 2024)
